From patent US4791200A, “2-substituted-4-aryl-substituted thiazoles” (Ortho Pharmaceutical Corporation, priority 1987, dated 1988)
Read-outs that look alike come from different tables or passages of the source.

Assays:
parietal cells = assay: Isolated Parietal Cell Assay (14C-aminopyrine accumulation, histamine or dibutyryl cAMP stimulated); format: cell-based, rabbit; conditions: Oryctolagus cuniculus
Experimental: The isolated parietal cell assay was conducted using the procedures of Batzri, S. et al., Biochemica et Biophysica Acta 508, 328 (1978) and Soll, A. H. Am. J. Physiol. 238, G366 (1980). Basically, parietal cells were isolated from the fundic mucosa of rabbit stomachs by a four-stage collagenase digestion process. The supernatant fractions from the last two stages of this process contain the individual parietal cells. This cell suspension was centrifuged and reconstituted in a modified Hank's buffer to contain 1-2×10^6 cells/ml. […] This accumulation was stimulated by histamine and was blocked by H2 antagonists. The cells were incubated with 0.4-0.5×10^6 cpm ^14 C-AP, with various concentrations of histamine as a stimulant, 1×10^-5 M isobutylmethylxanthine, and the test compound added in a 20 μl volume of buffer or DMSO. The flasks were incubated in a shaking water bath at 37° C. for 20 minutes. Two aliquots were then taken from each flask and cell pellets were collected by centrifugation. The pellets were solubilized with Protosol (New England Nuclear) and radioactivity determined by liquid scintillation spectrometry. Data is presented as the IC50 vhist, the concentration of compound required to inhibit ^14 C-AP accumulation in the histamine stimulated parietal cell by 50%.
When dibutyryl cAMP was used to stimulate the cells instead of histamine, a similar inhibition of ^14 C-AP accumulation was measured and the data are presented as the IC50 vcAMP, the concentration required to inhibit ^14 C-AP accumulation in the cAMP stimulated parietal cell by 50%.

[1] = test system: acid output (gastric secretion); assay: Gastric Secretion (pylorus ligation, modified Shay); format: in vivo, male Charles River Sprague Dawley derived rats; conditions: i.d. or s.c., 4 hours after ligation; for % Acid Secreted at mpK: at 20 mpK
Experimental: The inhibitory activity of the compounds on acid output was tested using pylorus ligation in a modification of the procedure of Shay, H. et al., Gastroenterology 26, 906 (1954). Basically, male Charles River Sprague Dawley derived rats weighing 150-300 grams were deprived of food but not water for 18-24 hours prior to use. Water was withheld during the experiment, however. The rats were weighed, anesthetized with ether and the pylorus ligated according to the method of Shay et al., supra. Treatment or vehicle control was then administered intraduodenally (i.d.) or subcutaneously (s.c.). Rats were housed two/cage and sacrificed with CO2 four hours after ligation. The stomachs were removed, rinsed, and contents emptied into a graduated centrifuge tube. The tubes were centrifuged, the volume of gastric juice recorded, and any samples obviously contaminated by feces, food or blood were eliminated. A 1 ml aliquot of gastric juice was titrated with 0.1N NaOH to a pH of 7.0-7.4. The volume of gastric juice secreted, the acid concentration, and the product of the volume times the concentration, i.e., the total amount of acid secreted, were measured.

[2] = molecular target: T1, parietal cell H^+ K^+ ATPase (Oryctolagus cuniculus, UniProt P27112); assay: Inhibition of Parietal Cell H^+ K^+ ATPase; format: biochemical, New Zealand white rabbits; conditions: read-out: % Inhibition at Concentration; for inhibition at 100 µM: at 10^-4 M
T1 construct: determined in fundic mucosa from New Zealand white rabbits which were homogenized; from tissue; host or cells: fundic mucosa of New Zealand white rabbits, homogenized; membrane protein
T1 sequence (P27112 2-1035 limits assumed): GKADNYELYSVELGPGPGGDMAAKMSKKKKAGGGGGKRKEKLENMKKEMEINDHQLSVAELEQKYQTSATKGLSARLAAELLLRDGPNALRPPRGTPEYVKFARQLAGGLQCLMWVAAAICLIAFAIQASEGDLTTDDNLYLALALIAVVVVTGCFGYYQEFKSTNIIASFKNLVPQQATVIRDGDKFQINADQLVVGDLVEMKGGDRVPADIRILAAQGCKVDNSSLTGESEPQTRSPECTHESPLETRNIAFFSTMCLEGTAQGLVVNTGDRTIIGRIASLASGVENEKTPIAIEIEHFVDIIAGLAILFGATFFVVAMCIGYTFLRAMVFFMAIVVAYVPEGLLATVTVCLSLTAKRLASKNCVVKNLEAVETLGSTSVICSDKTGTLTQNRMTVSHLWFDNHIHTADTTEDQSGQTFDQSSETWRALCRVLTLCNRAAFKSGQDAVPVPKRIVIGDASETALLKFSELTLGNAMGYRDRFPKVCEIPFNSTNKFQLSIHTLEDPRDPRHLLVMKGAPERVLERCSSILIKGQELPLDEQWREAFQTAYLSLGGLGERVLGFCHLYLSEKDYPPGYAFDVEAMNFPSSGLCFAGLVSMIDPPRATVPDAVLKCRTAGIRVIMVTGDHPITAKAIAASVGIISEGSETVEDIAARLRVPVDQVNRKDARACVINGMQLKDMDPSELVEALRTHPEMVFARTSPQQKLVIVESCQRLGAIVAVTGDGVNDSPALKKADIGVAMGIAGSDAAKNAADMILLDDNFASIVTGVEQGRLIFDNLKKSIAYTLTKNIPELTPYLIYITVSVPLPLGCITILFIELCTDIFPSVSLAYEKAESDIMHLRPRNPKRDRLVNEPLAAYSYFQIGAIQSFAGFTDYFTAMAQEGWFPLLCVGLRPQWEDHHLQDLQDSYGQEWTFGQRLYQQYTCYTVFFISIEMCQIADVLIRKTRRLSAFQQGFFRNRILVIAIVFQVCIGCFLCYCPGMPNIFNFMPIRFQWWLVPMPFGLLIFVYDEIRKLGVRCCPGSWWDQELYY
T1 sequence (P18597 whole entry partner): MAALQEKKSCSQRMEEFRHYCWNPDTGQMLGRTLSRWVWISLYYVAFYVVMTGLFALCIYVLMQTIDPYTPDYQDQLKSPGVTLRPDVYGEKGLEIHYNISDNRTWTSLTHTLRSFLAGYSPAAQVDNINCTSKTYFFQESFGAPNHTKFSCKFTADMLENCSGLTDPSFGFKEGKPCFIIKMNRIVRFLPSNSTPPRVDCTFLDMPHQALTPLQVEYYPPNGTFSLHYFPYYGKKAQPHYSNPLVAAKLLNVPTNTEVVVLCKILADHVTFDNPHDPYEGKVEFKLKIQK
Experimental: The activity was measured in a 1 ml incubation volume containing 50 mM Tris pH 7.4, 2 mM MgCl2, 2 mM Na2 ATP, with or without 20 mM KCl and vehicle control (dimethylsulfoxide) or test compound added in a 0.02 ml volume. Typically, 20-50 μg membrane protein was added and the tubes were preincubated with test compound for 10 minutes at 37° C. Substrate, Na2 ATP, was then added and the tubes were incubated for another 15 minutes at 37° C. The reaction was stopped by the addition of 1 ml 14% trichloroacetic acid and the samples were centrifuged at 2,000 ×g for 10 minutes. The amount of inorganic phosphate present in an aliquot of supernatant was determined. H^+ K^+ ATPase activity was determined after correcting for the basal (Mg^++ only) enzyme activity present in the membrane preparation.

[3] = 20 min, histamine stimulated, 37° C., 20 minutes, read-out: IC50 vhist (inhibition of 14C-AP accumulation in the histamine stimulated parietal cell)
[4] = dibutyryl cAMP stimulated, read-out: IC50 vcAMP (inhibition of 14C-AP accumulation in the cAMP stimulated parietal cell)

SMILES	IC50 (parietal cells; [3])	response vs control in vivo at 40 mg/kg ([1]; Rattus norvegicus, at 40 mpK, read-out: % Acid Secreted at mpK)	inhibition at 100 µM [2]	IC50 (parietal cells; [4])	% Acid Secreted at mpK [1]	inhibition at 10.5 µM ([2]; at 10.5 μM)
c1ccc(-c2nc(-c3ccc(OCCCn4cncn4)cc3)cs2)cc1 [Example 24, 4-[4-(1,2,4-Triazol-1-yl)propoxyphenyl]-2-phenylthiazole]	10000 nM	83%	36%	–	–	–
CCCCN(CCCC)CCCOc1ccc(-c2nc(-c3ccccc3)sc2CC)cc1 [Example 25, 5-Ethyl-4-(4-dibutylaminopropoxyphenyl)-2-phenylthiazole]	340 nM	–	5%	240 nM	8%	–
CCCCN(CCCC)CCCOc1ccc(-c2csc(-c3ccccc3)n2)cc1C [Example 26]	300 nM	–	23%	290 nM	64%	–
c1ccc(-c2nc(-c3cccc(OCCCn4ccnc4)c3)cs2)cc1 [Example 27]	320 nM	–	–	290 nM	13%	50%
